Tested on: Plasmodium berghei
Assay: Luciferase/luciferin-expressing antifolate-resistant parasites were used to infect a culture of HepG2 cells that were pre-incubated with compounds. Infected hepatocytes emit light due to the luciferase reaction. Assay results are presented as the percent inhibition of light emission compared to control. […]
Format: functional
Settings: sporozoite; for IC90: read-out: LUCIFERASE INFECTION ASSAY - IC90
[1] = read-out: LUCIFERASE INFECTION ASSAY - IC50

SMILES | IC90 | IC50 [1] | other results
Cn1nc(C(F)(F)F)cc1-c1ccc(/C=C(\C#N)S(=O)(=O)c2ccc(Cl)cc2)s1 | > 7.21 µM | – | IC50 (FFLUC_HILL_SLOPE 11.9, FFLUC_R_SQUARED 0.391, read-out: LUCIFERASE INFECTION ASSAY - IC50): > 7.21 µM
Cc1ccc(C2Nc3ccccc3C(=O)N2C(C)c2ccccc2)o1 (stereo unspecified) | > 10 µM | > 10 µM | –
CCCNc1nc(-c2ccccc2)c(C(=O)OCC)cc1C#N | 3.12 µM | – | IC50 (HEPG2TOX_HILL_SLOPE 1.25, HEPG2TOX_R_SQUARED 0.958, PBLUC_HILL_SLOPE 3.81, PBLUC_R_SQUARED 0.673, read-out: LUCIFERASE INFECTION ASSAY - IC50): 1.75 µM
CCCCCCOCC[N+](C)(CCOCCCCCC)CCOCCCCCC | 1.08 µM | – | IC50 (FFLUC_HILL_SLOPE 13.1, FFLUC_R_SQUARED 0.46, HEPG2TOX_HILL_SLOPE 1.63, HEPG2TOX_R_SQUARED 0.995, PBLUC_HILL_SLOPE 15.2, PBLUC_R_SQUARED 0.558, read-out: LUCIFERASE INFECTION ASSAY - IC50): 0.933 µM
O=C(NC(=O)N1CCc2c([nH]c3ccccc23)C1C(F)(F)F)c1ccccc1 (stereo unspecified) | > 8.52 µM | > 8.52 µM | –
O=C(COc1ccc(Cl)cc1Br)c1ccc[nH]1 | > 10 µM | – | IC50 (FFLUC_HILL_SLOPE 12.1, FFLUC_R_SQUARED 0.341, HEPG2TOX_HILL_SLOPE 8.8, HEPG2TOX_R_SQUARED 0.689, read-out: LUCIFERASE INFECTION ASSAY - IC50): > 10 µM
Cn1cc(-c2cnc3cnc(-c4ccc5c(c4)OCO5)cn23)cn1 | > 10.3 µM | – | IC50 (PBLUC_HILL_SLOPE 3.19, PBLUC_R_SQUARED 0.356, read-out: LUCIFERASE INFECTION ASSAY - IC50): 9.57 µM
Cc1cc(NC(=O)C(C)Sc2ncnc3c2oc2ccccc23)no1 (stereo unspecified) | > 10 µM | – | IC50 (PBLUC_HILL_SLOPE 2.18, PBLUC_R_SQUARED 0.0347, read-out: LUCIFERASE INFECTION ASSAY - IC50): > 10 µM
O=C(NN=c1nc[nH]c2ccccc12)c1c(O)c(O)cc2ccccc12 | 1.34 µM | – | IC50 (HEPG2TOX_HILL_SLOPE 1.23, 1.37, HEPG2TOX_R_SQUARED 0.873, 0.334, PBLUC_HILL_SLOPE 12.1, 7.99, PBLUC_R_SQUARED 0.334, 0.684, read-out: LUCIFERASE INFECTION ASSAY - IC50): 1.07 µM
CC(C)c1cc(Cl)n2ncc(-c3ccccc3)c2n1 | > 12.1 µM | – | IC50 (PBLUC_HILL_SLOPE 1.33, PBLUC_R_SQUARED 0.849, read-out: LUCIFERASE INFECTION ASSAY - IC50): 4.61 µM
CCOc1ccc(S(=O)(=O)Nc2cc3c4c(oc3c3ccccc23)CC(C)(C)CC4=O)cc1 | 6.15 µM | – | IC50 (HEPG2TOX_HILL_SLOPE 4.2, HEPG2TOX_R_SQUARED 0.972, PBLUC_HILL_SLOPE 5.12, PBLUC_R_SQUARED 0.622, read-out: LUCIFERASE INFECTION ASSAY - IC50): 4.01 µM
CC(C)c1ccc(CN(C(=O)Cc2c[nH]c3ccccc23)C2CC2)cc1 | > 10 µM | – | IC50 (PBLUC_HILL_SLOPE 3.49, PBLUC_R_SQUARED 0.314, read-out: LUCIFERASE INFECTION ASSAY - IC50): > 10 µM
Fc1ccc(-c2cnn3c(NCCCN4CCOCC4)ccnc23)cc1Cl | > 8.46 µM | – | IC50 (PBLUC_HILL_SLOPE 1.9, PBLUC_R_SQUARED 0.489, read-out: LUCIFERASE INFECTION ASSAY - IC50): 4.05 µM
O=C(Nc1ccn(-c2ccccc2)n1)c1cc(-c2ccccc2)nc2ccccc12 | > 10 µM | – | IC50 (PBLUC_HILL_SLOPE 22.3, 9.62, PBLUC_R_SQUARED 0.228, 0.621, read-out: LUCIFERASE INFECTION ASSAY - IC50): 9.46 µM
Cc1nc2ccccc2n1CCNC(=O)N1CCN(c2ccc(C(F)(F)F)cc2[N+](=O)[O-])CC1 | > 10 µM | > 10 µM | –
CCn1c(=O)n(Cc2ncc(-c3cccc(Cl)c3)o2)c2ccccc21 | > 10 µM | – | IC50 (PBLUC_HILL_SLOPE 1.51, PBLUC_R_SQUARED 0.651, read-out: LUCIFERASE INFECTION ASSAY - IC50): 5.23 µM
CN(C)S(=O)(=O)c1cccc(NC(=O)c2ccc(-n3cnc4ccccc43)cc2)c1 | 6.32 µM | – | IC50 (HEPG2TOX_HILL_SLOPE 0.179, HEPG2TOX_R_SQUARED 0.448, PBLUC_HILL_SLOPE 2.55, PBLUC_R_SQUARED 0.642, read-out: LUCIFERASE INFECTION ASSAY - IC50): 2.67 µM
O=C(Nc1nc2ccccn2c1C(=O)NC1CCCC1)c1ccc(F)cc1F | 3.49 µM | 2.94 µM | –
CCOC(=O)c1sc(-c2ccccc2)cc1NC(=O)COC(=O)c1c2c(nc3ccccc13)CCC(C)C2 (stereo unspecified) | > 10 µM | – | IC50 (FFLUC_HILL_SLOPE 0.238, FFLUC_R_SQUARED 0.508, read-out: LUCIFERASE INFECTION ASSAY - IC50): > 10 µM
Cn1cc(-c2cc3cnc(Nc4ccc(C(N)=O)cc4)cc3n2Cc2ccccc2)cn1 | > 10 µM | > 10 µM | –
CCOC(=O)C1CCCN(C(=O)Cc2cccc3ccccc23)CC1 (stereo unspecified) | > 9.72 µM | > 9.72 µM | –
COC(=O)c1cccc(C(=O)Nc2nccn2Cc2ccccc2)c1 | 9.3 µM | – | IC50 (PBLUC_HILL_SLOPE 5.71, PBLUC_R_SQUARED 0.673, read-out: LUCIFERASE INFECTION ASSAY - IC50): 6.33 µM

SMILES | IC90 | IC50 [1] | other results
CCOC(=O)c1cnc2cc(Cl)c(F)cc2c1N1CCOCC1 | > 9.74 µM | > 9.74 µM | –
COc1cc(-c2nccc3n[nH]c(C)c23)cc(OC)c1OC | > 10 µM | – | IC50 (HEPG2TOX_HILL_SLOPE 1.13, HEPG2TOX_R_SQUARED 0.879, read-out: LUCIFERASE INFECTION ASSAY - IC50): > 10 µM
Cc1cc(C(=O)Nc2nc3ccc(Cl)cc3s2)c2c(C)nn(C)c2n1 | 9.09 µM | – | IC50 (HEPG2TOX_HILL_SLOPE 1.29, HEPG2TOX_R_SQUARED 0.966, PBLUC_HILL_SLOPE 2.52, PBLUC_R_SQUARED 0.194, read-out: LUCIFERASE INFECTION ASSAY - IC50): 3.81 µM
CCOC(=O)c1sc(NC(=O)c2ccc([N+](=O)[O-])s2)nc1C | 3.85 µM | – | IC50 (PBLUC_HILL_SLOPE 17.3, PBLUC_R_SQUARED 0.599, read-out: LUCIFERASE INFECTION ASSAY - IC50): 3.39 µM
CC(C)c1ccc(CSc2nnc(CC3CCS(=O)(=O)C3)o2)cc1 (stereo unspecified) | > 10 µM | > 10 µM | –
CC(c1ccccc1)n1c(SCCSc2cc(Cl)ccc2Cl)nc2ccccc2c1=O (stereo unspecified) | > 10 µM | – | IC50 (PBLUC_HILL_SLOPE 4.25, PBLUC_R_SQUARED 0.473, read-out: LUCIFERASE INFECTION ASSAY - IC50): 6.21 µM
O=S(=O)(Nc1cc(C(F)(F)F)cc(C(F)(F)F)c1)c1cc(Cl)ccc1Cl | > 7.53 µM | – | IC50 (HEPG2TOX_HILL_SLOPE 2.59, HEPG2TOX_R_SQUARED 0.793, PBLUC_HILL_SLOPE 6.41, PBLUC_R_SQUARED 0.152, read-out: LUCIFERASE INFECTION ASSAY - IC50): 6.18 µM
COC(=O)c1sc2nccnc2c1N | > 15.8 µM | > 15.8 µM | –
O=C(c1cnc2cc3c(cc2c1)OCCO3)c1cc(F)ccc1O | 2.41 µM | – | IC50 (HEPG2TOX_HILL_SLOPE 1.24, HEPG2TOX_R_SQUARED 0.963, PBLUC_HILL_SLOPE 1.6, PBLUC_R_SQUARED 0.807, read-out: LUCIFERASE INFECTION ASSAY - IC50): 0.612 µM
c1ccc(CCNc2nn3c(-c4ccsc4)cnc3s2)nc1 | > 10.1 µM | > 10.1 µM | –
CC1(C)CC(CCNCc2ccc(F)cc2)(Cc2ccccc2)CCO1 (stereo unspecified) | 4.13 µM | – | IC50 (HEPG2TOX_HILL_SLOPE 551, HEPG2TOX_R_SQUARED 0.482, PBLUC_HILL_SLOPE 3.65, PBLUC_R_SQUARED 0.507, read-out: LUCIFERASE INFECTION ASSAY - IC50): 2.26 µM
CCOc1ccc(-n2c(-c3ccc(Cl)cc3)c[n+]3c2SCC3)cc1 | 8.41 µM | – | IC50 (HEPG2TOX_HILL_SLOPE 17.5, HEPG2TOX_R_SQUARED 0.639, PBLUC_HILL_SLOPE 3.46, PBLUC_R_SQUARED 0.768, read-out: LUCIFERASE INFECTION ASSAY - IC50): 4.45 µM
O=C1N=C(NC2CCCCC2)S/C1=C\c1cccc(C(F)(F)F)c1 | > 10 µM | > 10 µM | –
CSc1sc(-c2nc(C)cs2)c(C)c1-c1ccnc(SCc2c(Cl)cccc2Cl)n1 | > 6.46 µM | – | IC50 (FFLUC_HILL_SLOPE 1.79, FFLUC_R_SQUARED 0.514, read-out: LUCIFERASE INFECTION ASSAY - IC50): > 6.46 µM
CCN(CC)Cc1nc(Oc2ccc(C)cc2OC)c2c(C)c(C)sc2n1 | > 10 µM | – | IC50 (HEPG2TOX_HILL_SLOPE 7.2, HEPG2TOX_R_SQUARED 0.121, read-out: LUCIFERASE INFECTION ASSAY - IC50): > 10 µM
CN=C1NN=C(c2cc(C)n(-c3ccc(OC)cc3)c2C)CS1 | > 10 µM | – | IC50 (PBLUC_HILL_SLOPE 1.15, PBLUC_R_SQUARED 0.417, read-out: LUCIFERASE INFECTION ASSAY - IC50): > 10 µM
CN1/C(=C\C(=O)CSc2nc(N)c3ccsc3n2)C(C)(C)c2ccccc21 | > 10 µM | – | IC50 (PBLUC_HILL_SLOPE 1.96, PBLUC_R_SQUARED 0.352, read-out: LUCIFERASE INFECTION ASSAY - IC50): 8.34 µM
COc1cc(OC)cc(C(=O)Nc2nc3ccccn3c2C(=O)NC2CCCC2)c1 | 3.15 µM | – | IC50 (PBLUC_HILL_SLOPE 13.4, PBLUC_R_SQUARED 0.275, read-out: LUCIFERASE INFECTION ASSAY - IC50): 2.68 µM
Cc1ccc(C(CCNCc2cccs2)c2ccco2)cc1 (stereo unspecified) | 2.72 µM | 1.96 µM | –
COc1ccc(CNc2nc(C)nc3scc(-c4ccccc4)c23)cc1 | 6.87 µM | – | IC50 (FFLUC_HILL_SLOPE 0.195, FFLUC_R_SQUARED 0.119, HEPG2TOX_HILL_SLOPE 2.5, HEPG2TOX_R_SQUARED 0.976, PBLUC_HILL_SLOPE 4.55, PBLUC_R_SQUARED 0.142, read-out: LUCIFERASE INFECTION ASSAY - IC50): 4.24 µM
O=C(Cn1[nH]c(=O)c2ccccc2c1=O)NCc1ccc(CN2CCOCC2)cc1 | > 10 µM | > 10 µM | –

Source: ChEMBL document CHEMBL4483862, “Open-source discovery of chemical leads for next-generation chemoprotective antimalarials” (2018)
